Source: US20240109912A1, “TRICYCLIC PYRIMIDINES AS CYCLIN-DEPENDENT KINASE 7 (CDK7) INHIBITORS” (JANSSEN PHARMACEUTICA NV, priority 2020, published 2024)
Where “and” joins values, the source holds several entries; their conditions need not be identical. Equal entries are not always repeated. Where two headings read alike, the source gives them in different places.

How the values were obtained:
[1] = system: RNA polymerase II Serine 5 phosphorylation (CDK7) in A549 cells
[2] = biological target: CDK7/cyclinH/MAT1 trimeric complex (Homo sapiens (Human), UniProt P50613); experiment: In vitro CDK7 assay, potency of irreversible covalent inhibitors (kinact/KI)
Sequence of CDK7/cyclinH/MAT1 trimeric complex (P50613 whole entry): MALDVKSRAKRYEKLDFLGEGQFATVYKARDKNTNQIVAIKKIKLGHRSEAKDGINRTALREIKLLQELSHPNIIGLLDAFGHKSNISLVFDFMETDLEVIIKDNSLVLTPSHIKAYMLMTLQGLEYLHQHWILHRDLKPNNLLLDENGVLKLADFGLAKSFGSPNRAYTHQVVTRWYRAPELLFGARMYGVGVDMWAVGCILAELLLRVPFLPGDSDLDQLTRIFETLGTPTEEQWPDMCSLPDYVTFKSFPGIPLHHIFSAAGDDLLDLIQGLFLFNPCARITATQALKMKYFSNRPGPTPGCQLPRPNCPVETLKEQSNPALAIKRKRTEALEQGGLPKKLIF
Sequence of CDK7/cyclinH/MAT1 trimeric complex (P51946 whole entry partner): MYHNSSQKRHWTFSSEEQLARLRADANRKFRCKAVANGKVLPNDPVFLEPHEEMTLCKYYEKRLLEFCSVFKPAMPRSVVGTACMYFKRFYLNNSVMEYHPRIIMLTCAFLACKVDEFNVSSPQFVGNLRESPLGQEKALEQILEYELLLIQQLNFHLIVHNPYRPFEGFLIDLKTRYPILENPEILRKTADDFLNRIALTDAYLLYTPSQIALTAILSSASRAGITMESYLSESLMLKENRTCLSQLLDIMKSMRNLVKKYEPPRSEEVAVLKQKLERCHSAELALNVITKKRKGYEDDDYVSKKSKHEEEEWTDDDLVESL
Sequence of CDK7/cyclinH/MAT1 trimeric complex (P51948 whole entry partner): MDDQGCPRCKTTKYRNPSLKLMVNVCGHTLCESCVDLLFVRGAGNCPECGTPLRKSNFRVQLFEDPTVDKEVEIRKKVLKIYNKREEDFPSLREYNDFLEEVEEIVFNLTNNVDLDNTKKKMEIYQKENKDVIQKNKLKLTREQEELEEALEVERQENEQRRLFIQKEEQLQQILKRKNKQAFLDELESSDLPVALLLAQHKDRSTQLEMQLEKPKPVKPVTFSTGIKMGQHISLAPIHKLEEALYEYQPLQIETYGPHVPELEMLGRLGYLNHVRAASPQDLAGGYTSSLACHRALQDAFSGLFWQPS

[3] = system: RNA polymerase II Serine 5 phosphorylation in A549 cells overexpressing CDK7 mutant (C312S); experiment: Imaging-based cellular RNA PolII Ser5 phosphorylation assay in A549 cells overexpressing CDK7-mutant (C312S); type: cell-based, human; details: for IC50: Homo sapiens, A549, A549 cells overexpressing CDK7 mutant (C312S), read-out: CDK7_ A549 mutant hCDK7(pIC50) (converted); for CDK7_ A549 mutant hCDK7(pIC50): A549 cells overexpressing CDK7 mutant (C312S)
Protocol: Data were calculated and analyzed in Phaedra.
From this an IC50 value can be obtained.
In parallel this assay was performed in A549 cells overexpressing CDK7-mutant (C312S) to evaluate the effect of the covalent bond on potency and to screen for potential off-target effects. Mutation of Cysteine to Serine (C312S), a less nucleophilic amino acid, prevents CDK7 inhibitors from covalently binding to CDK7 and from inhibiting CDK7 activity in an irreversible manner. A stably transduced A549 cell pool was generated that overexpresses CDK7 mutant (C312S), but also expresses endogenous CDK7-WT. Covalent binders targeting the cysteine at position 312 will show a shift in potency in A549 cells overexpressing mutant C312S CDK7.

[4] = CDK7 (20 nM enz.) (KI, μM), 20 nM enz.
[5] = read-out: CDK7 (20 nM enz.) (kinact, s^−1), 20 nM enz.
[6] = read-out: CDK7 (20 nM enz.) (kinact/ KI, M^−1*s^−1), 20 nM enz.

Row | SMILES | IC50 [1] | IC50 [3] | Ki [2, 4] | kinact [2, 5] | kinact/KI [2, 6] | also measured
1 | C=CC(=O)N1CC(N2CC[C@H](c3ccc4c(c3)Nc3ncnc(N5CCOCC5)c3CO4)C2)C1 (single isomer, unassigned) [compound 9] | 2090 nM | > 10000 nM | – | – | – | Ki ([2]; CDK7 (KI(μM)), Table B): 0.72 µM; kinact ([2]; read-out: CDK7 (kinact, s^−1), Table B): 0.000216 s⁻¹; kinact/KI ([2]; read-out: CDK7 (kinact/KI, M^−1*s^−1), Table B): 306 M⁻¹ s⁻¹
2 | C=CC(=O)N1CC[C@H](N2CCC(c3cc(F)c4c(c3)Nc3ncnc(N5CCOCC5)c3CO4)CC2)C1 (single isomer, unassigned) [compound 50] | 200 nM | > 10000 nM | 0.302 µM | 7.72e-05 s⁻¹ | 256 M⁻¹ s⁻¹ | –
3 | C=CC(=O)N1CC[C@@H](N2CCC(c3cc(F)c4c(c3)Nc3ncnc(N5CCOCC5)c3CO4)CC2)C1 (single isomer, unassigned) [compound 51] | 324 nM | > 10000 nM | 0.643 µM | 8.79e-05 s⁻¹ | 137 M⁻¹ s⁻¹ | –
4 | C=CC(=O)N1CC[C@H](N2CC(c3cc(F)c4c(c3)Nc3ncnc(N5CCOCC5)c3CO4)C2)C1 (single isomer, unassigned) [compound 54] | 1050 nM | > 10000 nM | 1.36 µM | 7.77e-05 s⁻¹ | 57.2 M⁻¹ s⁻¹ | –
5 | C=CC(=O)N1CC[C@@H](N2CC(c3cc(F)c4c(c3)Nc3ncnc(N5CCOCC5)c3CO4)C2)C1 (single isomer, unassigned) [compound 55] | 933 nM | > 10000 nM | 1.04 µM | 6.83e-05 s⁻¹ | 65.7 M⁻¹ s⁻¹ | –
6 | C=CC(=O)N1CC(N2CCC(c3ccc4c(c3)Nc3ncnc(N5CCOCC5)c3[C@@H](C)O4)CC2)C1 (single isomer, unassigned) [compound 56] | 3240 nM | > 10000 nM | 4.2 µM | 8.48e-05 s⁻¹ | 20.2 M⁻¹ s⁻¹ | –
7 | C=CC(=O)N1CC(N2CCC(c3ccc4c(c3)Nc3ncnc(N5CCOCC5)c3[C@H](C)O4)CC2)C1 (single isomer, unassigned) [compound 57] | 263 nM | > 10000 nM | 0.0876 µM | 7.7e-05 s⁻¹ | 879 M⁻¹ s⁻¹ | –
8 | C=CC(=O)N1CC[C@H](N2CC(c3cc4c(c(C)n3)OCc3c(ncnc3N3CCS(=O)(=O)CC3)N4)C2)C1 (single isomer, unassigned) [compound 78] | 5370 nM | > 10000 nM | 0.168 µM | 3.85e-05 s⁻¹ | 229 M⁻¹ s⁻¹ | –
9 | C=CC(=O)N1CC[C@@H](N2CC(c3cc4c(c(C)n3)OCc3c(ncnc3N3CCS(=O)(=O)CC3)N4)C2)C1 (single isomer, unassigned) [compound 79] | 4570 nM | > 10000 nM | 0.189 µM | 3.93e-05 s⁻¹ | 209 M⁻¹ s⁻¹ | –
10 | C=CC(=O)N1CC(N2CCC(c3cc4c(cn3)O[C@H](C)c3c(ncnc3N3CCOCC3)N4)CC2)C1 (single isomer, unassigned) [compound 83] | 138 nM | – | 0.059 µM | – | – | CDK7 (20 nM enz.) (kinact, s^−1) ([2]; 20 nM enz.): 2.22e-05 s⁻¹; CDK7 (20 nM enz.) (kinact/ KI, M^−1*s^−1) ([2]; 20 nM enz.): 376.933 M⁻¹ s⁻¹; CDK7_ A549 mutant hCDK7(pIC50) [3]: <5.4
11 | C=CC(=O)N1CC(N2CC(c3cc(C)c4c(c3)Nc3ncnc(-c5cnn(C)c5)c3[C@@H](C)O4)C2)C1 (single isomer, unassigned) [compound 109] | 363 nM | > 10000 nM | 0.13 µM | 4.5e-05 s⁻¹ | 345 M⁻¹ s⁻¹ | –
12 | C=CC(=O)N1CC[C@H](N2CC(c3cc(C)c4c(c3)Nc3ncnc(N5CCS(=O)(=O)CC5)c3[C@H](C)O4)C2)C1 (single isomer, unassigned) [compound 116] | 191 nM and 269 nM | > 10000 nM | 0.3 µM and 0.189 µM | 4.57e-05 s⁻¹ | 152 M⁻¹ s⁻¹ | CDK7 (20 nM enz.) (kinact, s^−1) ([2]; 20 nM enz.): 3.89e-05 s⁻¹; CDK7 (20 nM enz.) (kinact/ KI, M^−1*s^−1) ([2]; 20 nM enz.): 206.471 M⁻¹ s⁻¹; CDK7_ A549 mutant hCDK7(pIC50) [3]: <5
13 | C=CC(=O)N1CC[C@@H](N2CC(c3cc(C)c4c(c3)Nc3ncnc(N5CCS(=O)(=O)CC5)c3[C@H](C)O4)C2)C1 (single isomer, unassigned) [compound 118] | 204 nM and 339 nM | > 10000 nM | 0.28 µM and 0.281 µM | 4.2e-05 s⁻¹ | 150 M⁻¹ s⁻¹ | CDK7 (20 nM enz.) (kinact, s^−1) ([2]; 20 nM enz.): 5.02e-05 s⁻¹; CDK7 (20 nM enz.) (kinact/ KI, M^−1*s^−1) ([2]; 20 nM enz.): 179.017 M⁻¹ s⁻¹; CDK7_ A549 mutant hCDK7(pIC50) [3]: <5
14 | C=CC(=O)N1CC[C@H](N2CC(c3cc(C)c4c(c3)Nc3ncnc(N5CCS(=O)(=O)CC5)c3[C@@H](C)O4)C2)C1 (single isomer, unassigned) [compound 121] | 28.2 nM and ~31.6 nM | – | – | – | – | CDK7 (20 nM enz.) (kinact/ KI, M^−1*s^−1) ([2]; 20 nM enz.): 611.255 M⁻¹ s⁻¹; CDK7 (20 nM enz.) (kobs/[I], M^−1*s^−1) ([2]; 20 nM enz.): 1089.23 M⁻¹ s⁻¹; CDK7_ A549 mutant hCDK7(pIC50) [3]: <5
15 | CC#CC(=O)N1CC(N2CC(c3cc(C)c4c(c3)Nc3ncnc(N5CCS(=O)(=O)CC5)c3CO4)C2)C1 [compound 132] | 813 nM | > 10000 nM | – | – | – | –
16 | CC#CC(=O)N1CC(OC2CCN(c3cc(C)c4c(c3)Nc3ncnc(N5CCS(=O)(=O)CC5)c3[C@@H](C)O4)CC2)C1 [compound 143] | 912 nM | > 10000 nM | – | – | – | –
17 | CC#CC(=O)N1CCC(N2CCC(c3cc(C)c4c(c3)Nc3ncnc(N5CCS(=O)(=O)CC5)c3CO4)CC2)C1 (centres unmarked) [compound 152] | 64.6 nM | ~8320 nM | – | – | – | –
18 | CC#CC(=O)N1CCN([C@H]2CC[C@H](c3cc(C)c4c(c3)Nc3ncnc(N5CCS(=O)(=O)CC5)c3[C@@H](C)O4)CC2)CC1 [compound 161] | < 9.77 nM | > 10000 nM | – | – | – | –
19 | CC#CC(=O)N1CCN([C@H]2CC[C@@H](c3cc(C)c4c(c3)Nc3ncnc(N5CCS(=O)(=O)CC5)c3[C@@H](C)O4)CC2)CC1 [compound 162] | 209 nM | > 10000 nM | – | – | – | –
20 | CC#CC(=O)N1CCC([C@H]2CC[C@H](c3cc(C)c4c(c3)Nc3ncnc(N5CCS(=O)(=O)CC5)c3[C@@H](C)O4)CC2)CC1 [compound 172] | 355 nM | > 10000 nM | – | – | – | –
21 | CC#CC(=O)N1CCC([C@H]2CC[C@@H](c3cc(C)c4c(c3)Nc3ncnc(N5CCS(=O)(=O)CC5)c3[C@@H](C)O4)CC2)CC1 [compound 173] | > 10000 nM | > 10000 nM | – | – | – | –
22 | [2H]C([2H])([2H])C#CC(=O)N1CC(C)(N2CCC(c3cc(C)c4c(c3)Nc3ncnc(N5CCS(=O)(=O)CC5)c3[C@@H](C)O4)CC2)C1 [compound 179] | ~56.2 nM | > 10000 nM | – | – | – | –
23 | Cc1cc(C2CCN(C3(C)CN(C(=O)C#CCCN4CCOCC4)C3)CC2)cc2c1O[C@H](C)c1c(ncnc1N1CCS(=O)(=O)CC1)N2 [compound 180] | < 9.77 nM | > 10000 nM | – | – | – | –
24 | Cc1cc(C2CCN(C3(C)CN(C(=O)C#CCN(C)C)C3)CC2)cc2c1O[C@H](C)c1c(ncnc1N1CCS(=O)(=O)CC1)N2 [compound 181] | 41.7 nM | 2340 nM | – | – | – | –

Second part, led by results:

Row | IC50 [1] | IC50 [3] | Ki [2, 4] | kinact [2, 5] | kinact/KI [2, 6] | SMILES | also measured
25 | 3160 nM | > 10000 nM | 2.57 µM | 8.1e-05 s⁻¹ | 31.5 M⁻¹ s⁻¹ | CC#CC(=O)N1CC(N2CCC(c3cc4c(c(C)n3)O[C@@H](C)c3c(ncnc3N3CCS(=O)(=O)CC3)N4)CC2)C1 (single isomer, unassigned) [compound 140] | –
26 | 162 nM | – | – | – | – | CC#CC(=O)N1CC[C@@H](N2CC(c3cc(C)c4c(c3)Nc3ncnc(N5CCS(=O)(=O)CC5)c3[C@@H](C)O4)C2)C1 [compound 141] | CDK7_ A549 mutant hCDK7(pIC50) [3]: <5
27 | 355 nM | – | – | – | – | CC#CC(=O)N1CC[C@H](N2CC(c3cc(C)c4c(c3)Nc3ncnc(N5CCS(=O)(=O)CC5)c3[C@@H](C)O4)C2)C1 [compound 142] | CDK7_ A549 mutant hCDK7(pIC50) [3]: <5
28 | < 2.45 nM | 1950 nM | – | – | – | CC#CC(=O)N1CCC(N2CCC(c3cc(C)c4c(c3)Nc3ncnc(N5CCS(=O)(=O)CC5)c3[C@@H](C)O4)CC2)CC1 [compound 156] | –
29 | 75.9 nM | – | – | – | – | CC#CC(=O)N1CC(N2CCC(c3cc(C)c4c(c3)Nc3ncnc(N5CCS(=O)(=O)CC5)c3[C@@H](C)O4)CC2)C1 [compound 157] | CDK7_ A549 mutant hCDK7(pIC50) [3]: 5.12
30 | 74.1 nM | – | – | – | – | CC#CC(=O)N1CC(N2CCC(c3cc(C)c4c(c3)Nc3ncnc(N5CCS(=O)(=O)CC5)c3[C@@H](C)O4)CC2)C1 [compound 158] | CDK7_ A549 mutant hCDK7(pIC50) [3]: ~5.22
31 | ~31.6 nM | > 10000 nM | – | – | – | CCC#CC(=O)N1CC(N2CCC(c3cc(C)c4c(c3)Nc3ncnc(N5CCS(=O)(=O)CC5)c3[C@@H](C)O4)CC2)C1 [compound 163] | –
32 | 53.7 nM | > 10000 nM | – | – | – | [2H]C([2H])([2H])C#CC(=O)N1CC(N2CCC(c3cc(C)c4c(c3)Nc3ncnc(N5CCS(=O)(=O)CC5)c3[C@@H](C)O4)CC2)C1 [compound 164] | –
33 | < 2.45 nM | 4170 nM | – | – | – | Cc1cc(C2CCN(C3CN(C(=O)C#CCN(C)C)C3)CC2)cc2c1O[C@H](C)c1c(ncnc1N1CCS(=O)(=O)CC1)N2 [compound 169] | –
34 | 58.9 nM | 7760 nM | – | – | – | Cc1cc(C2CCN(C3CN(C(=O)C#CC(C)C)C3)CC2)cc2c1O[C@H](C)c1c(ncnc1N1CCS(=O)(=O)CC1)N2 [compound 174] | –
35 | ~26.3 nM | ~10000 nM | – | – | – | Cc1cc(C2CCN(C3CN(C(=O)C#CCCN4CCOCC4)C3)CC2)cc2c1O[C@H](C)c1c(ncnc1N1CCS(=O)(=O)CC1)N2 [compound 175] | –
36 | < 9.77 nM | 5750 nM | – | – | – | Cc1cc(C2CCN(C3CN(C(=O)C#CCCN(C)C)C3)CC2)cc2c1O[C@H](C)c1c(ncnc1N1CCS(=O)(=O)CC1)N2 [compound 178] | –
